Test results as given in the supplement of paper PMC10307832.

Key:
Assay in all cases: relative viability (nuclei count vs DMSO), 5 days (fraction); higher = more cells survive
[1] = compound: C1CN(CCC1C(C2=CC3=C(C=C2)OCO3)(C4=CC5=C(C=C4)OCO5)O)C(=O)OC6=CC=C(C=C6)[N+](=O)[O-] [JZL-184] + CC(C)C[C@H](NC(=O)[C@H](Cc1ccccc1)NC(=O)c1cnccn1)B(O)O [Bortezomib] (partner 0.002 µM)
In short: (§1)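 Nuclei were stained with Hoechst during a one-step fixation (final 0.05% Triton X-100, 1% formaldehyde, 1 ug/ml Hoechst) carried out 5 days after dosing, then counted on 4× images. The cells, lung cancer lines in 1536-well plates, had been dosed by pin tool the day after seeding with one drug alone or a fixed anchor-drug dose plus five library-drug doses (not always all listed) in √10 steps. Relative viability is the nuclei count in treated wells divided by that in vehicle wells, and each value is the median of duplicate plates.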

[2] = compound: C1CN(CCC1C(C2=CC3=C(C=C2)OCO3)(C4=CC5=C(C=C4)OCO5)O)C(=O)OC6=CC=C(C=C6)[N+](=O)[O-] [JZL-184] + N=C(N)NC(=N)NCCc1ccccc1 [Phenformin] (partner 250 µM)
In short: as §1

[3] = compound: C1CN(CCC1C(C2=CC3=C(C=C2)OCO3)(C4=CC5=C(C=C4)OCO5)O)C(=O)OC6=CC=C(C=C6)[N+](=O)[O-] [JZL-184] + NC(=O)Nc1cc(-c2cccc(F)c2)sc1C(=O)N[C@H]1CCCNC1 [AZD7762] (partner 0.2 µM)
In short: as §1

[4] = compound: C1CN(CCC1C(C2=CC3=C(C=C2)OCO3)(C4=CC5=C(C=C4)OCO5)O)C(=O)OC6=CC=C(C=C6)[N+](=O)[O-] [JZL-184] + Nc1ncn([C@H]2C[C@H](O)[C@@H](CO)O2)c(=O)n1 [Decitabine] (partner 2 µM)
In short: as §1

[5] = compound: C1CN(CCC1C(C2=CC3=C(C=C2)OCO3)(C4=CC5=C(C=C4)OCO5)O)C(=O)OC6=CC=C(C=C6)[N+](=O)[O-] [JZL-184] + C[C@]1(O)C[C@@H](c2nc(-c3ccc4ccc(-c5ccccc5)nc4c3)c3c(N)nccn32)C1 [Linsitinib] (partner 1 µM)
In short: as §1

Cell Line	relative viability ([1]; first compound 0.04 µM)	relative viability ([1]; first compound 0.4 µM)	relative viability ([1]; first compound 1.265 µM)	relative viability ([1]; first compound 4 µM)	relative viability ([2]; first compound 0.04 µM)	relative viability ([2]; first compound 0.4 µM)	relative viability ([2]; first compound 1.265 µM)	relative viability ([2]; first compound 4 µM)	relative viability ([3]; first compound 0.04 µM)	relative viability ([3]; first compound 0.4 µM)	relative viability ([3]; first compound 1.265 µM)	relative viability ([3]; first compound 4 µM)	relative viability ([4]; first compound 0.04 µM)	relative viability ([4]; first compound 0.4 µM)	relative viability ([4]; first compound 1.265 µM)	relative viability ([4]; first compound 4 µM)	relative viability ([5]; first compound 0.04 µM)	relative viability ([5]; first compound 0.4 µM)	relative viability ([5]; first compound 1.265 µM)	relative viability ([5]; first compound 4 µM)
NCI-H1792	1.13	0.405	0.954	0.952	0.288	0.147	0.62	0.281	0.747	0.548	0.713	0.858	0.668	0.503	0.529	0.597	0.573	0.462	0.653	0.51
NCI-H1915	0.992	0.93	1.03	1.03	0.378	0.364	0.377	0.367	0.76	0.58	0.726	0.697	0.243	0.266	0.272	0.266	1.14	0.996	1.09	1.02
NCI-H1975	0.361	0.419	0.358	0.336	0.414	0.411	0.395	0.397	0.723	0.664	0.804	0.583	0.429	0.368	0.413	0.397	1.04	1.04	1.02	0.896
NCI-H1993	1.17	1.14	1.21	1.22	0.428	0.476	0.487	0.47	0.704	0.725	0.885	0.803	0.572	0.588	0.577	0.559	0.703	0.773	0.727	0.696
NCI-H2085	0.914	1.06	1.04	0.91	0.433	0.682	0.843	0.737		0.886	1.02	1.01		0.538	0.521	0.627	0.852	0.862	1.18	0.866
NCI-H2087	0.901	0.811	0.845	0.771	0.538	0.449	0.515	0.486	1.33	1.2	1.26	1.34	0.271	0.301	0.415	0.237	1.14	0.765	0.999	0.961
NCI-H2126	1.13	1.09	1.09	1.15	0.6	0.541	0.538	0.532	1.06	1.01	1.02	0.996	0.597	0.608	0.558	0.555	0.644	0.673	0.701	0.693
NCI-H2347	1.12	0.717	1.05	0.906	0.357	0.393	0.369	0.536		0.758	0.82	0.703		0.577	0.657	0.644	0.98	0.953	0.926	0.946
